Laboratory results reported in ChEMBL document CHEMBL1201862, “PubChem BioAssay data set” (2004).
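How tested: cells in 96-well plates exposed to compound for 48 hours at five concentrations. The concentration for 50% growth inhibition is given as GI50.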 Activity calls are given as the source filed them. No stated cut-off is given here; in the data, active = GI50 up to about 1.1 µM and inactive = higher.

Columns and labels:
Assay in all cases: NCI anticancer screen, dose series, 48 h
[1] = tested on: NCI/ADR-RES
[2] = tested on: MCF7
[3] = tested on: A549
[4] = tested on: MDA-MB-435
[5] = tested on: LOX IMVI
[6] = tested on: EKVX
[7] = tested on: MOLT-4
[8] = tested on: SNB-19
[9] = tested on: IGROV-1
[10] = tested on: HL-60
[11] = tested on: CCRF-CEM
[12] = tested on: HCC 2998
[13] = tested on: SK-MEL-28
[14] = tested on: TK-10
[15] = tested on: U-251
[16] = tested on: OVCAR-4
[17] = tested on: M14
[18] = tested on: SNB-75
[19] = tested on: NCI-H522
[20] = tested on: MDA-N

Measured: GI50

CC(C(O)c1ccccc1)[N+](=O)[O-] (configuration not stated)
inactive: [1] 28.1 µM | [2] 3.64 µM | [3] 17.7 µM | [4] 18.5 µM | [5] 2.29 µM | [6] 30 µM | [7] 1.65 µM | [8] 24.5 µM | [9] 14.8 µM | [10] 4.79 µM | [11] 10 µM | [12] 10.9 µM | [13] 19.8 µM | [14] 28.6 µM | [15] 16.6 µM | [16] 24.7 µM | [17] 6.43 µM | [18] 40.6 µM | [19] 8.71 µM

OCCN(CCO)c1ccc2c(-c3ccccc3)cc(N(CCO)CCO)nc2n1
inactive: [1] > 100 µM | [2] > 100 µM | [3] > 100 µM | [4] > 100 µM | [6] > 100 µM | [7] > 100 µM | [8] > 100 µM | [9] > 100 µM | [11] > 100 µM | [12] > 100 µM | [13] > 100 µM | [14] > 100 µM | [15] > 100 µM | [16] > 100 µM | [17] > 100 µM | [18] > 100 µM | [19] > 100 µM

O=[N+]([O-])c1ccc2c(c1)c(S(=O)(=O)O)cc1nonc12
inactive: [1] > 100 µM | [2] > 100 µM | [3] > 100 µM | [4] > 100 µM | [5] > 100 µM | [6] > 100 µM | [7] > 100 µM | [8] > 100 µM | [9] > 100 µM | [20] > 100 µM | [10] > 100 µM | [13] > 100 µM | [14] > 100 µM | [15] > 100 µM | [16] > 100 µM | [17] > 100 µM | [19] > 100 µM

Cc1cn(C(CO)OC(CO)CN(O)C2C3CC4CC(C3)CC2C4)c(=O)[nH]c1=O (configuration not stated)
inactive: [2] > 100 µM | [3] > 100 µM | [4] > 100 µM | [6] > 100 µM | [7] > 100 µM | [8] > 100 µM | [9] > 100 µM | [20] > 100 µM | [10] > 100 µM | [12] > 100 µM | [13] > 100 µM | [14] > 100 µM | [15] > 100 µM | [16] > 100 µM | [17] > 100 µM | [18] > 100 µM

NC12CC3CC4C1CC1CC2C(C3)C4(N)C1
inactive: [1] > 100 µM | [2] > 100 µM | [3] > 100 µM | [4] > 100 µM | [5] > 100 µM | [6] > 100 µM | [7] > 100 µM | [8] > 100 µM | [9] > 100 µM | [20] > 100 µM | [10] > 100 µM | [11] > 100 µM | [13] > 100 µM | [14] 50.7 µM | [15] > 100 µM | [16] > 100 µM | [17] > 100 µM | [19] > 100 µM

O=C1c2ccccc2-c2c1c(-c1ccccc1)c1n2C2(C(=O)c3ccccc3C2=O)C2C(=O)N(c3ccccc3)C(=O)C12 (configuration not stated)
inactive: [1] 74.6 µM | [2] 24.8 µM | [3] 85.1 µM | [4] 19.8 µM | [5] 17 µM | [6] 24 µM | [7] 40.6 µM | [8] 27.7 µM | [9] 32.3 µM | [20] 24.7 µM | [11] 26.1 µM | [13] 28.9 µM | [14] 28.1 µM | [15] 35.9 µM | [16] 31.4 µM | [17] 34.1 µM | [18] 17.3 µM | [19] 12.9 µM

[O-][S+]1c2ccccc2SCSc2ccccc21
inactive: [1] > 100 µM | [2] > 100 µM | [3] > 100 µM | [7] 66.5 µM | [8] > 100 µM | [20] > 100 µM | [12] > 100 µM | [14] > 100 µM | [15] > 100 µM | [16] > 100 µM | [17] > 100 µM | [19] > 100 µM

COc1cc2c(cc1OC)C(c1ccccc1CCCCl)=NCC2
inactive: [1] > 100 µM | [2] 95.5 µM | [3] > 100 µM | [4] 10.8 µM | [6] 90.2 µM | [7] 80.4 µM | [8] > 100 µM | [9] 33.9 µM | [10] 28.8 µM | [11] > 100 µM | [12] 46.9 µM | [13] 19.1 µM | [14] > 100 µM | [15] 8.07 µM | [16] 91.4 µM | [17] > 100 µM | [18] 75.3 µM | [19] 20.8 µM

O=S(=O)(O)c1cc(S(=O)(=O)O)c2cc(/N=N/c3c(O)ccc4ccccc34)ccc2c1
inactive: [1] > 100 µM | [3] > 100 µM | [4] > 100 µM | [5] > 100 µM | [6] > 100 µM | [7] > 100 µM | [8] > 100 µM | [9] > 100 µM | [20] > 100 µM | [10] > 100 µM | [11] > 100 µM | [13] > 100 µM | [14] > 100 µM | [15] > 100 µM | [16] > 100 µM | [17] > 100 µM | [18] > 100 µM | [19] > 100 µM

CSCCCNC(=O)c1csc(-c2csc(C(CNC(=O)OC(C)(C)C)CNC(=O)OC(C)(C)C)n2)n1
inactive: [1] 24.8 µM | [2] 57.9 µM | [4] 45 µM | [5] 39.8 µM | [6] 58.3 µM | [7] 16.8 µM | [8] 58.3 µM | [9] 33.3 µM | [20] 51.4 µM | [11] 16.6 µM | [14] 66.1 µM | [15] 25.6 µM | [16] 26.9 µM | [17] 47 µM | [18] 35 µM | [19] 18.6 µM

Cc1ccc2c(=O)cc(Cc3csc4ccccc34)[nH]c2n1
inactive: [1] 19.8 µM | [2] 35.2 µM | [3] 27.4 µM | [4] 32.6 µM | [5] 17.5 µM | [6] 29.2 µM | [7] 38.3 µM | [8] 39.7 µM | [9] 11.7 µM | [20] 64.7 µM | [11] 41.4 µM | [13] 50.5 µM | [14] 53.5 µM | [15] 69.8 µM | [16] 21.1 µM | [17] 32 µM | [18] 16.6 µM | [19] 13.6 µM
